Target: T1, human PAH with the R408W mutation (A375 R408W cells) (Homo sapiens, UniProt P00439, R408W)
T1 construct: expressed in transfected cells
T1 sequence (P00439 1-452 R408W): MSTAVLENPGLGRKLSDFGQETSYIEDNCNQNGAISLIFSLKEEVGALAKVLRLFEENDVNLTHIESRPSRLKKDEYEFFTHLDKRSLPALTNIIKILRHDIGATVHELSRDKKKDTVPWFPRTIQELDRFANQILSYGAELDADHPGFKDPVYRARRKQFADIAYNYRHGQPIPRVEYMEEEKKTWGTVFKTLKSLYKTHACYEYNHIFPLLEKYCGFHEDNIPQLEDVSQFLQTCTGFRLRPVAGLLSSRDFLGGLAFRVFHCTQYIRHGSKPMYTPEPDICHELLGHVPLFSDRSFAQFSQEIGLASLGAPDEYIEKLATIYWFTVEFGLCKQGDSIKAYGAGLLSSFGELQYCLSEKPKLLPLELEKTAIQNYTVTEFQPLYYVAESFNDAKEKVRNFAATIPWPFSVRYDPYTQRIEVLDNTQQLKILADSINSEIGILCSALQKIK
Experiment: Cell Based Phenylalanine Flux Assay
Conditions: 24 hrs with compound, then 20 μM sepiapterin and 800 μM 13C9,15N-Phenylalanine for 4 hours, 13C-Tyrosine by LC-MS, average where tested multiple times
In short: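 A375 cells stably expressing human PAH R408W treated 24 h at 37° C with a 10-point 2-fold dose curve in duplicate, 0.5% DMSO. Then 20 μM sepiapterin and 800 μM 13C9,15N-Phe added for 4 h; 13C-Tyr in media measured by LC-MS to give AC50.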

[1] = A375 cells expressing R408W PAH

CC1CN(C(=O)c2ocnc2C(F)F)[C@@H](c2nc3cccc(F)c3o2)c2nc[nH]c21 (single isomer, unassigned) [Example 805]
AC50 (A375 R408W cells): 1 to 5 µM

O=C(c1oc(C2(O)CC2)nc1C(F)F)N1CCc2[nH]cnc2[C@H]1c1nc2ccc(F)cc2o1 [Example 237, (S)-(4-(difluoromethyl)-2-(1-hydroxycyclopropyl)oxazol-5-yl)(4-(6-fluorobenzo[d]oxazol-2-yl)-6,7-dihydro-1H-imidazo[4,5-c]pyridin-5(4H)-yl)methanone]
AC50 (A375 R408W cells): 1 to 5 µM

O=C(CCc1cncs1)N1CCc2[nH]cnc2[C@H]1c1nc2c(F)cccc2o1 (single isomer, unassigned)
AC50 [1]: 1 to 5 µM

O=C(c1oc(-c2cccnc2)nc1C(F)F)N1CCc2[nH]cnc2[C@@H]1c1nc2cc(F)ccc2o1 [Example 419, (R)-(4-(difluoromethyl)-2-(pyridin-3-yl)oxazol-5-yl)(4-(5-fluorobenzo[d]oxazol-2-yl)-6,7-dihydro-1H-imidazo[4,5-c]pyridin-5(4H)-yl)methanone]
AC50 (A375 R408W cells): 0.5 to 1 µM

CC(C)n1ncnc1C(=O)N1CCc2[nH]cnc2[C@H]1c1nc2ccccc2o1 [Example 705, (S)-(4-(benzo[d]oxazol-2-yl)-6,7-dihydro-1H-imidazo[4,5-c]pyridin-5(4H)-yl)(1-isopropyl-1H-1,2,4-triazol-5-yl)methanone]
AC50 (A375 R408W cells): ≤ 0.5 µM

O=C(c1ccnn1C(F)F)N1CCc2[nH]cnc2[C@H]1c1nc2cccc(F)c2o1 [Example 195, (S)-(1-(difluoromethyl)-1H-pyrazol-5-yl)(4-(7-fluorobenzo[d]oxazol-2-yl)-6,7-dihydro-1H-imidazo[4,5-c]pyridin-5(4H)-yl)methanone]
AC50 (A375 R408W cells): ≤ 0.5 µM

O=C(c1nnc(-c2ccc(F)c(F)c2)o1)N1CCc2[nH]cnc2[C@@H]1c1nc2cc(F)ccc2o1 [Example 76, (R)-(5-(3,4-difluorophenyl)-1,3,4-oxadiazol-2-yl)(4-(5-fluorobenzo[d]oxazol-2-yl)-6,7-dihydro-1H-imidazo[4,5-c]pyridin-5(4H)-yl)methanone]
AC50 (A375 R408W cells): 1 to 5 µM

O=C(c1oc(C2(O)CC2)nc1C(F)F)N1CCc2[nH]cnc2[C@@H]1c1nc2cccc(F)c2o1 [Example 213, (R)-(4-(difluoromethyl)-2-(1-hydroxycyclopropyl)oxazol-5-yl)(4-(7-fluorobenzo[d]oxazol-2-yl)-6,7-dihydro-1H-imidazo[4,5-c]pyridin-5(4H)-yl)methanone]
AC50 (A375 R408W cells): 0.5 to 1 µM

O=C(c1cnn2cc(N3CCC(O)CC3)ccc12)N1CCc2[nH]cnc2[C@H]1c1nc2c(F)ccc(F)c2o1 [Example 895, (S)-(4-(4,7-difluorobenzo[d]oxazol-2-yl)-6,7-dihydro-1H-imidazo[4,5-c]pyridin-5(4H)-yl)(6-(4-hydroxypiperidin-1-yl)pyrazolo[1,5-a]pyridin-3-yl)methanone]
AC50 (A375 R408W cells): 1 to 5 µM

Cc1cccc2nc([C@H]3c4nc[nH]c4CCN3C(=O)c3nnc(-c4ncccc4F)o3)oc12 [Example 857, (R)-(5-(3-fluoropyridin-2-yl)-1,3,4-oxadiazol-2-yl)(4-(7-methylbenzo[d]oxazol-2-yl)-6,7-dihydro-1H-imidazo[4,5-c]pyridin-5(4H)-yl)methanone]
AC50 (A375 R408W cells): 1 to 5 µM

O=C(c1nnc(-c2ccccn2)o1)N1CCc2[nH]cnc2C1c1nc2cc(C(F)(F)F)ccc2o1 (centres unmarked)
AC50 [1]: 1 to 5 µM

Cn1cc(C(=O)N2CCc3[nH]cnc3C2c2nc3cc(F)ccc3o2)c(Cl)n1 (centres unmarked)
AC50 [1]: 1 to 5 µM

O=C(c1nnc(-c2ncccc2F)o1)N1CCc2[nH]cnc2C1c1nc2cc(F)ccc2o1 (centres unmarked)
AC50 [1]: 1 to 5 µM

CNC(C)(C)c1nc(C)c(C(=O)N2CCc3[nH]cnc3C2c2nc3cc(F)ccc3o2)o1 (single isomer, unassigned) [4R enantiomer of (2-{5-[4-(5-fluoro-1,3-benzoxazol-2-yl)-1H,]
AC50 [1]: ≥ 5 µM

O=C(c1oc(-c2ccccn2)nc1C(F)F)N1CCc2[nH]cnc2[C@@H]1c1nc2cccc(F)c2o1 [Example 588, (R)-(4-(difluoromethyl)-2-(pyridin-2-yl)oxazol-5-yl)(4-(7-fluorobenzo[d]oxazol-2-yl)-6,7-dihydro-1H-imidazo[4,5-c]pyridin-5(4H)-yl)methanone]
AC50 (A375 R408W cells): ≤ 0.5 µM

COc1cccc2oc([C@H]3c4nc[nH]c4CCN3C(=O)c3ccnn3C(F)F)nc12 [Example 604, (R)-(1-(difluoromethyl)-1H-pyrazol-5-yl)(4-(4-methoxybenzo[d]oxazol-2-yl)-6,7-dihydro-1H-imidazo[4,5-c]pyridin-5(4H)-yl)methanone]
AC50 (A375 R408W cells): 1 to 5 µM

COc1cc(F)cc2nc([C@@H]3c4nc[nH]c4CCN3C(=O)c3oc(C(C)(C)O)nc3C(F)F)oc12 [Example 715, (S)-(4-(difluoromethyl)-2-(2-hydroxypropan-2-yl)oxazol-5-yl)(4-(5-fluoro-7-methoxybenzo[d]oxazol-2-yl)-6,7-dihydro-1H-imidazo[4,5-c]pyridin-5(4H)-yl)methanone]
AC50 (A375 R408W cells): ≤ 0.5 µM

O=C(c1cnco1)N1CCc2[nH]cnc2[C@@H]1c1nc2cccc(F)c2o1 [Example 282, (R)-(4-(7-fluorobenzo[d]oxazol-2-yl)-6,7-dihydro-1H-imidazo[4,5-c]pyridin-5(4H)-yl)(oxazol-5-yl)methanone]
AC50 (A375 R408W cells): 1 to 5 µM

Cn1cc(-c2nnc(C(=O)N3CCc4[nH]cnc4[C@@H]3c3nc4cccc(F)c4o3)o2)cn1 [Example 192, (R)-(4-(7-fluorobenzo[d]oxazol-2-yl)-6,7-dihydro-1H-imidazo[4,5-c]pyridin-5(4H)-yl)(5-(1-methyl-1H-pyrazol-4-yl)-1,3,4-oxadiazol-2-yl)methanone]
AC50 (A375 R408W cells): 1 to 5 µM

Cn1nc(C(F)F)nc1C(=O)N1CCc2[nH]cnc2[C@@H]1c1nc2ccccc2o1 [Example 562, (R)-(4-(benzo[d]oxazol-2-yl)-6,7-dihydro-1H-imidazo[4,5-c]pyridin-5(4H)-yl)(3-(difluoromethyl)-1-methyl-1H-1,2,4-triazol-5-yl)methanone]
AC50 (A375 R408W cells): 1 to 5 µM

Cn1cnc(-c2nnc(C(=O)N3CCc4[nH]cnc4[C@H]3c3nc4c(F)ccc(F)c4o3)o2)c1 [Example 817, (S)-(4-(4,7-difluorobenzo[d]oxazol-2-yl)-6,7-dihydro-1H-imidazo[4,5-c]pyridin-5(4H)-yl)(5-(1-methyl-1H-imidazol-4-yl)-1,3,4-oxadiazol-2-yl)methanone]
AC50 (A375 R408W cells): 0.5 to 1 µM

O=C(c1ccnn1C(F)F)N1CCc2[nH]cnc2[C@H]1c1nc2ccc(F)cc2o1 [Example 189, (S)-(1-(difluoromethyl)-1H-pyrazol-5-yl)(4-(6-fluorobenzo[d]oxazol-2-yl)-6,7-dihydro-1H-imidazo[4,5-c]pyridin-5(4H)-yl)methanone]
AC50 (A375 R408W cells): 0.5 to 1 µM

O=C(c1nccs1)N1CCc2[nH]cnc2C1c1nc2ccc(Br)cc2o1 (centres unmarked)
AC50 [1]: 1 to 5 µM

Cc1cccc2oc([C@@H]3c4nc[nH]c4CCN3C(=O)c3nc(C(F)F)nn3C)nc12 [Example 447, (S)-(3-(difluoromethyl)-1-methyl-1H-1,2,4-triazol-5-yl)(4-(4-methylbenzo[d]oxazol-2-yl)-6,7-dihydro-1H-imidazo[4,5-c]pyridin-5(4H)-yl)methanone]
AC50 (A375 R408W cells): ≤ 0.5 µM

COc1ccc2oc([C@@H]3c4nc[nH]c4CCN3C(=O)c3nc(C(F)F)nn3C)nc2c1 [Example 549, (S)-(3-(difluoromethyl)-1-methyl-1H-1,2,4-triazol-5-yl)(4-(5-methoxybenzo[d]oxazol-2-yl)-6,7-dihydro-1H-imidazo[4,5-c]pyridin-5(4H)-yl)methanone]
AC50 (A375 R408W cells): 0.5 to 1 µM

O=C(c1cnn2cc(N3CCC(O)CC3)ccc12)N1CCc2[nH]cnc2C1c1nc2ccccc2o1 (centres unmarked)
AC50 [1]: 1 to 5 µM

Source: patent US20250171437A1 (Agios Pharmaceuticals,Inc., priority 2022, published 2025)
